Paper PMC6395679, “Efficient cell penetration and delivery of peptide nucleic acids by an argininocalix[4]arene” (Scientific Reports, 2019)

Assays:
[1] = tested on: Fl-a221PNA; test: Fluorescence titration of Fl-a221PNA with calixarene 1; assay type: binding; conditions: Fl-a221PNA 2 μM, HEPES 16 mM, NaCl 40 mM, pH 7.4, λex = 494 nm, 1 added stepwise up to 9.9 μM
Description: For a fast evaluation of the interaction with PNA, fluorescently labelled Fl-a221PNA (Fl: Fluorescein) was diluted to a final concentration of 2 μM in buffer (HEPES 16 mM, NaCl 40 mM, pH 7.4) and placed in a fluorescence cuvette; to this, a concentrated solution of the argininocalix[4]arene 1 (100 μM in EtOH/H2O/DMSO = 2/2/1 v/v/v) was added stepwise (up to a final concentration of 9.9 μM of calixarene), and changes in the fluorescein emission intensity (with λex = 494 nm) were measured after each addition. Correction for lamp fluctuation was performed by measuring the fluorescence of a standard 2 μM fluorescein solution after each spectra; this correction and that for dilution were performed using the formula: Fi, corr = Fi,obs × (Fin /Fi) × (Vi /Vin), where Fi: intensity at the ith point and Fin: initial intensity of the fluorescein standard, Vi: total volume at the ith point and Vin: initial volume.
In order to rule out that the observed delivery was solely due to permeabilization of cells caused by the argininocalixarene, without interaction between the carrier and the PNA, Fl-a221PNA was titrated in vitro in buffer by adding 1 and measuring the changes in fluorescence emission (Fig. 4). […] A slight shift of the fluorescence maximum (from 519 to 523 nm) was also observed, consistent with a more polar microenvironment generated by the cationic calixarene.

[2] = tested on: U251 cells; test: Effects on cell growth (cell number/ml, Z2 Coulter Counter); assay type: cell-based, human; conditions: after 72 hours of cell culture, effect of 1 significant only at 10 µM, lipofectamine within 0.5–12 μl/ml
Description: (§1) Cell viability after the transfection with 1 was evaluated with Muse Count & Viability Kit (Millipore, Billerica, Massachusetts, USA), using Muse Cell Analyser (Millipore, Billerica, Massachusetts, USA). To perform analysis, 50 µL of suspension cells were added to 225 µL of Muse Count & Viability Reagent, the solution was incubated at room temperature for 5 minutes, protected from the light and then 1 × 10^3 events were analysed using Muse Cell Analyser (Millipore, Billerica, Massachusetts, USA). The effects on cell growth were studied by determining the cell number/ml using a Z2 Coulter Counter (Coulter Electronics, Hialeah, FL, USA). The effects of calixarene 1 on cell viability, cell growth and cell morphology were compared to those of Lipofectamine RNAiMAX (Invitrogen, Monza, Italy).
(§2) Comparison was done with the effects of lipofectamine analyzed after 72 hours of cell culture. […] These findings are in agreement with the cell morphology profile shown in Fig. 2(D–F) and determined by microscopic inspection after 72 hours of cell culture in the presence of 2.5 µM calixarene 1 (Fig. 2E), 3μL/mL lipofectamine (Fig. 2F) or in the absence of both the delivery systems (Fig. 2D).

[3] = tested on: miR-221-3p; test: RT-qPCR hybridization to miR-221-3p probe; assay type: cell-based, human; conditions: U251 cells, 48 hours, calixarene 1 at 2.5 μM, PNAs at 2 μM
Description: The human glioma U251 cells[50] were cultured in humidified atmosphere of 5% CO2/air in RPMI-1640 medium (Gibco, Life Technologies, Monza, Italy) supplemented with 10% (v/v) fetal bovine serum (FBS, Biowest, Nuaillé, France), 100 units/mL penicillin and 100 µg/mL streptomycin (Pen-Strep, Sigma-Aldrich, Saint Louis, Missouri, USA). All PNA transfection procedures were performed under the conditions described here below. Briefly, a mixture constituted by RPMI-1640 medium containing calixarene 1 at 2.5 µM final concentration, and 2 µM PNA was prepared and incubated for 20 minutes at room temperature, without serum. After the incubation, 10% (v/v) of FBS was added. […]
For miRNAs quantification, obtained RNA was reverse transcribed using TaqMan MicroRNA Reverse Transcription Kit (Applied Biosystems, Foster City, CA, USA) and miRNA specific stem-loop primer (hsa-miR-96-5p, ID: 000186; hsa-miR-155-5p, ID: 002623; hsa-miR-210-3p, ID: 000512; hsa-miR-221-3p, ID: 000524). Reverse transcription quantitative polymerase-chain reaction (RT-qPCR) was performed according to the manufacturer’s protocols and as indicated elsewhere. […] The relative expression was calculated using the comparative cycle threshold method (ΔΔCT) and U6 snRNA (hsa U6 snRNA, ID:001973) and hsa-let-7c (hsa-let-7c, ID:000379) as endogenous controls. […]

[4] = tested on: U251 cells; test: Cell viability assay (Muse Count & Viability Kit); assay type: cell-based, human; conditions: in contact for all the treatment time
Description: The human glioma U251 cells[50] were cultured in humidified atmosphere of 5% CO2/air in RPMI-1640 medium (Gibco, Life Technologies, Monza, Italy) supplemented with 10% (v/v) fetal bovine serum (FBS, Biowest, Nuaillé, France), 100 units/mL penicillin and 100 µg/mL streptomycin (Pen-Strep, Sigma-Aldrich, Saint Louis, Missouri, USA). All PNA transfection procedures were performed under the conditions described here below. Briefly, a mixture constituted by RPMI-1640 medium containing calixarene 1 at 2.5 µM final concentration, and 2 µM PNA was prepared and incubated for 20 minutes at room temperature, without serum. After the incubation, 10% (v/v) of FBS was added. Cell culture medium was removed and replaced with the transfection mixture, which was maintained in contact with cells until the end of the treatment.
as §1
One of the major issues associated with the use of commercial available vehicles is the high toxicity of these compounds. For such reason 1 was first evaluated for its effect on cell viability when used to transfect molecules. […] Viability profile was determined at three different time points, 24, 48 and 72 hours after transfection, with three different concentrations of […], 1.25, 2.5, and 10 μM. […]

[5] = tested on: U251 cells; test: Cell morphology by microscopic inspection; assay type: cell-based, human; conditions: 72 hours of cell culture, 2.5 µM calixarene 1 or 3μL/mL lipofectamine
Description: as §1, §2

Substance: tetraargininocalix[4]arene [compound 1]
- concentration of carrier at saturation of fluorescence quenching [1]: 2.5 µM
- effect on cell proliferation (cell growth) [2]: minor
- effect on miR-221-3p hybridization signal [3]: no effects
- percentage of total live cells ([4]; 1.25 µM of 1, 24 hours after the transfection): no differences
- percentage of total live cells ([4]; 2.5 µM of 1, 24 hours after the transfection): no differences
- live cells percentage ([4]; 10 µM of 1, 24 hours after the transfection): slight decrease
- effect on cell morphology [5]: does not affect cell morphology
